In publication PMC6628648, “Enabling microbial syringol conversion through structure-guided protein engineering” (Proceedings of the National Academy of Sciences of the …, 2019) one finds Coupling efficiency data, which are given here for 3 compounds.

Common to all, as to assay: End-point coupling assay (formaldehyde produced per NADH consumed)
Assay type in all cases: biochemical, Amycolatopsis sp. ATCC 39116
Conditions in all cases: molar ratio formaldehyde produced per NADH consumed, 200 µM NADH, 200 µM aromatic substrate

In experiment [1] the target is T1, GcoA variant F169L (Amycolatopsis sp., UniProt P0DPQ7, F169L).
T1 construct: GST (N, cleaved yes); made in house; host or cells: E. coli Rosetta 2 (DE3)
T1 sequence (P0DPQ7 whole entry F169L): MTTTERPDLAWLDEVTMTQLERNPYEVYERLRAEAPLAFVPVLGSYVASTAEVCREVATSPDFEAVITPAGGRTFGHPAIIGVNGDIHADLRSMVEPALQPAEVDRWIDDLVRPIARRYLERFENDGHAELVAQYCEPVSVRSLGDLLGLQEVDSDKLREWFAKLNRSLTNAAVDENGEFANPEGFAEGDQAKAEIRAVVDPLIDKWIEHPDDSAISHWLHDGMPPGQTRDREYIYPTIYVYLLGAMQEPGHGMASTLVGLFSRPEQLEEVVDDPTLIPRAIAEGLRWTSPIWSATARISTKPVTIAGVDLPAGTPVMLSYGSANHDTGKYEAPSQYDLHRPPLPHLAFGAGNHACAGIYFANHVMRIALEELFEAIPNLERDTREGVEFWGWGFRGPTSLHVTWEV
The protocol:
(§1) The [formaldehyde] produced on reaction with GcoA-F169A and substrates was determined using a colorimetric assay with tryptophan ([28], [42]); details are provided in SI Appendix. […]
(§2) vi = Vmax[S]/(KM + [S]) (4) […]
(§3) Formaldehyde determination. A colorimetric assay using tryptophan can be used to quantify the amount of formaldehyde produced in F169 GcoA/B reactions with guaiacol, syringol, or 3MC. 0.2 µM each of F169 GcoA mutants and GcoB were dissolved in air-saturated buffer (25 mM HEPES, 50 mM NaCl) in a cuvette at pH 7.5, 25 °C. 100 µg/mL catalase was added to each reaction to capture any H2O2 formed during the uncoupled reaction. 200 μM NADH was added and the background rate recorded. 100 (guaiacol, syringol, or 3MC) or 200 (syringol) μM of substrate was then added and the reaction monitored until there was no more change, due to either substrate, NADH or O2 depletion, whichever occurred first. 200 µL of the reaction was then quenched by adding 200 µL of a 0.1% tryptophan solution in 50% ethanol and 200 µL of 90% sulfuric acid. Upon thorough mixing, 40 µL of 1% FeCl3 was added. The solution was then incubated in a heating block for 90 min at 70 °C. After cooling, the absorbance was read at 575 nm and the [formaldehyde] calculated by using ε575 nm = 4.2 mM-1 cm-1, obtained with formaldehyde as a standard (1). A negative control included everything but the substrate and was used as a baseline. […]
(§4) The reaction of each aliquot was immediately quenched with 12.5
(§5) μL saturated ammonium sulfate, 7% v/v H2SO4 (pH 2.0) prior to loading onto the HPLC column. [Substrate] disappearance was referenced to GcoA (0.2 µM) and fit to a linear line to determine specific activity.
(§6) Data analysis. The consumption of NADH and subsequent production of formaldehyde and aromatic product were measured in triplicate and the error reported as ±1 standard deviation. To determine the statistical significance between NADH consumption and the products produced, the p-value was determined for all runs containing guaiacol, syringol, and 3MC. These values were calculated using two degrees of freedom, a tail value of two, and assuming a t-statistical value for unequal variances.
(§7) Detection of H2O2 via horseradish peroxidase (HRP) and Amplex Red assay. The reaction between 100 μM guaiacol or 3MC with 0.2 μM F169A/GcoB and 100 μM NADH in air-saturated buffer (25 mM HEPES, 50 mM NaCl, pH 7.5) was monitored continuously in a quartz cuvette, using the NADH consumption assay described above. The same thing was done for syringol, but with either 100 or 200 μM NADH. When there was no longer any change in the spectra, e.g., the reaction was completed, 100 μL was removed from the cuvette and pipetted into a 96-well microplate. A 5 mL solution containing 50 μL of 10 mM Amplex Red (prepared in DMSO and stored at -20 °C) and 100 μL of 10 U/mL HRP was made up in the above buffer. 100 μL of this was added to each of the wells with each reaction sample. The plate was incubated in the dark at room temperature for 30 min, at which point the absorbance at […]
(§8) Table S1. Rate of substrate disappearance or product appearance (specific activity) for F169A.
(§9) Substrate NADH disappearance aromatic substrate disappearance KD (µM) […]
(§10) Table S2. Rates of substrate disappearance and coupling efficiencies for reactions catalyzed by the GcoA-F169 variants.
(§11) GcoA Specific activity Coupling Specific activity Coupling Specific activity (μmol Coupling variant (μmol sec-1 μmol-1 efficiency (μmol sec-1 μmol-1 efficiency sec-1 μmol-1 GcoA)a efficiency GcoA)a (%)b GcoA)a (%)b (%)b […]
(§12) aNADH consumption was monitored continuously over time via UV/vis and quantifying with ε340 = 6.22 mM-1 cm-1 at 25°C, 25 mM HEPES, 50 mM NaCl, pH 7.5 and saturating (200 µM) concentrations of all substrates (syringol, guaiacol, and 3MC). bCalculated as the molar ratio of formaldehyde produced per NADH consumed in a fixed-time assay. Assay conditions: 0.2 µM […]

Experiment [2] deals with T2, GcoA variant F169S (Amycolatopsis sp., UniProt P0DPQ7, F169S).
T2 construct: GST (N, cleaved yes); made in house; host or cells: E. coli Rosetta 2 (DE3)
T2 sequence (P0DPQ7 whole entry F169S): as the sequence (P0DPQ7 whole entry F169L) above, with L169S counted along it
The protocol: as §1, §2, §3, §4, §5, §6, §7, §8, §9, §10, §11, §12

Experiment [3] addresses T3, GcoA variant F169I (Amycolatopsis sp., UniProt P0DPQ7, F169I).
T3 construct: GST (N, cleaved yes); made in house; host or cells: E. coli Rosetta 2 (DE3)
As for the experimental part:
as §1, §2, §3, §4, §5, §6, §7, §8, §9, §10, §11, §12

The target of experiment [4] is T4, GcoA variant F169V (Amycolatopsis sp., UniProt P0DPQ7, F169V).
T4 construct: GST (N, cleaved yes); made in house; host or cells: E. coli Rosetta 2 (DE3)
T4 sequence (P0DPQ7 whole entry F169V): as the sequence (P0DPQ7 whole entry F169L) above, with L169V counted along it
The protocol: as §1, §2, §3, §4, §5, §6, §7, §8, §9, §10, §11, §12

Experiment [5] addresses T5, GcoA variant F169H (Amycolatopsis sp., UniProt P0DPQ7, F169H).
T5 construct: GST (N, cleaved yes); made in house; host or cells: E. coli Rosetta 2 (DE3)
As for the experimental part:
as §1, §2, §3, §4, §5, §6, §7, §8, §9, §10, §11, §12

T3 sequence (P0DPQ7 whole entry F169I): as the sequence (P0DPQ7 whole entry F169L) above, with L169I counted along it
T5 sequence (P0DPQ7 whole entry F169H): as the sequence (P0DPQ7 whole entry F169L) above, with L169H counted along it

In the case of `COc1cccc(O)c1O` [3MC, 3-methoxycatechol], the Coupling efficiency in experiment [1] is given as 5.0 ± 4%; in experiment [2] it was 67 ± 8%; in experiment [3], 10 ± 9%; in experiment [4] it was 40 ± 3%; in experiment [5] it was 28 ± 20%.
Take `COc1ccccc1O` [guaiacol, 2-methoxyphenol]: the Coupling efficiency worked out at 73 ± 3% in experiment [1]; 67 ± 8% in experiment [2]; 41 ± 10% in experiment [3]; 105 ± 2% in experiment [4]; 103 ± 10% in experiment [5].
As to `COc1cccc(OC)c1O` [syringol, 2,6-dimethoxyphenol], the Coupling efficiency in experiment [1] was determined as 7.8 ± 2%; in experiment [2], 85 ± 5%; in experiment [3] it was 14 ± 2%; in experiment [4], 100 ± 10%; in experiment [5], 56 ± 7%.
